Assay [1] addresses PcrV (Pseudomonas aeruginosa, UniProt G3XD49). Briefly: SPR dose-response binding to immobilized PcrV (equilibrium analysis). The conditions noted are these: for Binding to PcrV in SPR (in words): dose-response SPR. As for the experimental part: The SPR screening was performed using the ProteOn^TM XPR36 Protein Interaction Array System (Bio-Rad Laboratories Inc., Hercules, CA, USA) with ProteOn GLH sensor chip (Bio-Rad Laboratories Inc., Hercules, CA, USA), and the results were analyzed with the ProteOn Manager software^TM (Bio-Rad Laboratories Inc., Hercules, CA, USA), Excel 2016 (Microsoft Office), and GraphPad Prism 7.04. All SPR experiments were performed at 25 °C. The multichannel module of the ProteOn system was in the vertical position during protein immobilization. The proteins were attached to the surface of a GLH sensor chip via amine coupling chemistry. A buffer scouting was performed to elucidate the optimal binding conditions of PcrV to the GLH sensor chip. First, channels 1–4 on the chip surface were activated using a 1:1 mixture of 40 mM 1-ethyl-3-(3-dimethylaminopropyl)carbodiimide hydrochloride (EDAC) (Bio-Rad Laboratories Inc., Hercules, CA, USA) and 10 mM N-hydroxysulfosuccinimide (sulfo-NHS, Bio-Rad Laboratories Inc., Hercules, CA, USA) for 300 s at 30 µL/min. Next, the proteins PcrV (33,398.6 Da, 6.37 mg/mL) was diluted in 10 mM NaOAc (pH 4, 4.5, and 5) to 0.05 mg/mL. PcrV was immobilized in channel 1–3 for 540 s at 30 µL/min. Channel 4 was flushed with 10 mM NaOAc (pH 5) for 540 s at 30 µL/min. As deactivating agent, a 1:1 mixture of 1 M ethanolamine and milli-Q filtered water was used. The deactivating solution was injected over all four channels for 300 s at 30 µL/min. Phosphate buffered saline with Tween (PBST; 10 mM phosphate buffer pH 7.4, 140 mM NaCl, 2.7 mM KCl, and 0.05% Tween 20) was used as the running buffer. The final amount of immobilized protein was measured in resonance units (RU) relative to the signal of the baseline prior activation. […] Immobilization of PcrV diluted in sodium acetate of pH 4.5 in one channel and of pH 5 in one channel were used in the beginning of the screening procedure (for plate 1–26). Since no difference was found between the two pH values, the PcrV protein was diluted in sodium acetate at pH 5 only (in two channels) from plate 27 and the rest of the screen. The immobilization procedure for the screening was performed as described above with the addition that the control protein carbonic anhydrase isoenzyme II from bovine erythrocytes (CAII, Sigma-Aldrich, article number 2522) was immobilized in one channel that was activated and deactivated as described above. CAII (1 mg/mL in PBS) was deactivated when diluted in 10 mM sodium acetate (pH 4) to 0.05 mg/mL. Immobilization level of the deactivated CAII was 18,000 RU. Deactivated CAII was used as a control protein according to the recommendations by the ProteOn manufacturer (Bio-Rad Laboratories Inc., Hercules, CA, USA). As running buffer, we employed PBS (pH 7.4, 0.05% Tween 20).
First, the PcrV protein was immobilized in two channels as described above while keeping a blank channel which was activated and deactivated as described above. The multichannel module of the ProteOn system was in horizontal position during the small molecule interaction studies. They were serially diluted to (400,) 200, 100, 50, 25, 12.5, 6.25, and (3.125); or 100, 50, 25, and 12.5 µM; or 100, 66.7, 44.4, 29.6, 19.7, and 13.2 µM in PBST (0.05% Tween 20) with a total concentration of 5% DMSO in 96-well plates. The running buffer was PBST (0.05% Tween 20) containing 5% DMSO. The analytes were injected at a flowrate of 100 µL/min, contact time was 60 s, and dissociation time was 60–120 s. Solvent correction was performed continuously during the experiments to account for bulk response of DMSO. The data was then baseline-aligned, processed by channel referencing with the blank channel, and solvent-corrected. The equilibrium dissociation constant (KD) values were determined from equilibrium analysis in the ProteOn Manager software^TM. Solubility problems frequently hampered KD determination since the small molecules could not always be dissolved in concentrations high enough to reach a plateau. […]

Assay [2] deals with J774 cells infected with P. aeruginosa strain PAK. The experiment in a line: cells. The class given is cell-based, Pseudomonas aeruginosa. To be noted: for Anti-virulence efficacy in the infection assay (in words): 25-200 µM; for viability at 25 µM / viability at 50 µM / viability at 100 µM / viability at 200 µM: Pseudomonas aeruginosa, uninfected control = 100%, infected control = 0%; for viability at 25 µM: J774, compound 25 µM, read-out: Viability Assay (% of Uninfected Control) 25 µM; for viability at 50 µM: J774, compound 50 µM, read-out: Viability Assay (% of Uninfected Control) 50 µM; for viability at 100 µM: J774, compound 100 µM, read-out: Viability Assay (% of Uninfected Control) 100 µM; for viability at 200 µM: J774, compound 200 µM. On the procedure: The cell viability assay was performed essentially as described before. J774 cells were seeded in 96-well micro-titer plates (Nunc), 100 µL/well, to a final number of 50,000 cells/well in Dulbecco’s modified Eagle’s medium (DMEM) with glutamax (Merck) supplemented with 10% fetal calf serum (FCS) and 3 µg/mL gentamicin and incubated for 16-18 h. Overnight cultures of the P. aeruginosa strains PAK and PAKpcrV [10] were grown in Luria Broth (LB) on a rotary shaker at 220 rpm at 37 °C. Prior to infection, the bacteria were diluted 1:10 in DMEM + glutamax and incubated for 1 h at 37 °C (shaking). The J774 cells were washed once with PBS, then 30 µL of DMEM with glutamax and 10% FCS supplemented with the potential binders at concentrations of 50, 100, 200, and 400 µM were added to the wells in triplicates. The infection was initiated by adding 30 µL of the diluted bacterial solutions (where the OD600 had been diluted to 0.0008) to each well to initiate infection. This infection results in a final bacterial concentration of OD600 = 0.0004 and a multiplicities of infection (MOI) of approximately 8, with final concentrations of the compounds at 25, 50, 100, and 200 µM in 60 µL of DMEM + glutamax and 5% FCS. In the primary screening, the compounds were run at one concentration (100 µM) in duplicates. As an infection control, the wild-type strain PAK with 1% DMSO was added, and as a positive control, PAKpcrV with 1% DMSO was added into four wells each. After 3 h and 30 min, 10 µL of UptiBlue Viable Cell Counting Kit (Interchime, France) was added to all wells. The infection was followed under the light microscope and the fluorescence (excitation 535 nm and emission 595 nm) was measured at 4, 5, and 6 h in a microplate reader (Synergy™ H4, Biotek). The results were calculated as percentage of living cells compared to uninfected control, where the uninfected control was set to 100% living cells and the infected control was set to 0% living cells. As a control, compounds were added to uninfected cells in a parallel experiment and viability was calculated as above to screen for cell toxicity. A compound was considered toxic if the viability was <80% of the uninfected control after 6 h of incubation and if a visual change of cell morphology was observed by microscopy. Z’ was calculated for each plate to ensure good quality throughout the screening. Only results from plates with a Z’ > 0.4 were counted. Standard deviation was calculated with Gaussian approximation when appropriate and shown as error bars in Figure 3C and Figure 4A.
The T3SS is important for P. aeruginosa infection of eukaryotic cells, and a T3SS activator mutant or a mutant lacking the T3SS tip protein PcrV are not able to infect eukaryotic cells. The macrophage cell line, J774, was infected with the wild-type P. aeruginosa strain PAK, and the potential PcrV binders were added to the wells at a final concentration of 100 µM to screen for inhibition of infection. The T3SS-mediated cytotoxic effect on the eukaryotic cells was measured by using a viability staining method (Uptiblue, Interchim), and the results were measured after 4, 5, and 6 h of infection. The pcrV-mutant (PAKpcrV), which is not able to infect macrophages due to deletion of the PcrV protein, was used as a control.

Where [3] appears, read: SPR KD, equilibrium analysis, mean ± SD of three or more independent experiments, individual values where n < 3, 25 °C, PBST 5% DMSO.
[4] abbreviates: KD ± standard error of KD (Table S1), single experiment, standard error from ProteOn Manager software.

Where “and” joins values, the source holds several entries; their conditions need not be identical. Equal entries are not always repeated.

Chain of PcrV (G3XD49 entry or part of it): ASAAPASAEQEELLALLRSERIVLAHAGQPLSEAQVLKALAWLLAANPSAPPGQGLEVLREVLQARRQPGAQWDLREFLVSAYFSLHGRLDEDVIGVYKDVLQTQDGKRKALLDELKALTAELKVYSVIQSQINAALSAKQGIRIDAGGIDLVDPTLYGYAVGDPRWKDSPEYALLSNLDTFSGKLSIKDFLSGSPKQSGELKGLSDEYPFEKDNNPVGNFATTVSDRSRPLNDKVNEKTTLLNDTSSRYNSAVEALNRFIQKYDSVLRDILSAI

`O=C(O)CCCOc1ccc(Cl)cc1` [Compound 3]: the Kd in assay [1] (setting [3]) was > 600 µM. Moreover, the “Binding to PcrV in SPR (in words)” value in assay [1] was “no binding at the examined concentrations”.
In the same order, the values of `COc1ccc(Br)cc1OCCCC(=O)O` [Compound 6] are > 600 µM and “impaired binding”.
In the same order, the values of `O=C(O)CCCOc1ccc(Br)cc1F` [Compound 5] are > 600 µM and “no binding at the examined concentrations”.
The like results for `O=C(O)CCCOc1cccc(C(=O)O)c1` [Compound 10] were, in that order, > 600 µM and “no binding to PcrV”.
For `O=C(O)CCCOc1ccc2c(c1)OCO2` [Compound 8], the Kd in assay [1] (setting [3]) was > 600 µM. In addition, in assay [1], the “Binding to PcrV in SPR (in words)” value is given as “impaired binding”.
In the case of `Cc1c(Br)ccc(OCCCC(=O)NS(=O)(=O)C(F)(F)F)c1C` [Compound 25], the Kd in assay [1] (setting [3]) is 102 µM and 164 µM. For the same compound, in assay [2], the “Anti-virulence efficacy in the infection assay (in words)” value is given as “as efficacious as or better than H1”, the viability at 25 µM came out at 9%, the viability at 50 µM is 11% and the viability at 100 µM was 22%. Also, the viability at 200 µM in assay [2] worked out at 34%.
For the compound `Cc1c(Br)ccc(OCCCC(=O)Nc2cc(F)c(F)cc2C(=O)O)c1C` [Compound 24], in assay [1] (setting [3]), the Kd was > 600 µM. Moreover, the “Binding to PcrV in SPR (in words)” value in assay [1] is listed as “failed to bind PcrV”.
With `COC(=O)CCCOc1ccc(Br)c(C)c1C` [Compound 29], binding in assay [1] (setting [4]) was characterised by a dissociation constant (Kd) of 206 ± 77 µM. In assay [1] (setting [3]), this compound yielded a Kd of 110 ± 83 µM. Besides, in assay [1] (single experiment), the “Rmax (Table S1)” value came out at 60. In assay [2], the viability at 25 µM was 8%, the viability at 50 µM was determined as 12%, the viability at 100 µM is 23% and the viability at 200 µM worked out at 14%.
In the case of `Cc1c(Br)ccc(OCCCC(=O)NS(C)(=O)=O)c1C` [Compound 26], the Kd in assay [1] (setting [4]) was found to be 135 ± 30 µM. Besides, the equilibrium dissociation constant (Kd) in assay [1] (setting [3]) was determined as 93 ± 31 µM. In addition, in assay [2], the viability at 25 µM was 10%, the viability at 50 µM is 11%, the viability at 100 µM was 17% and the viability at 200 µM was 13%.
`Cc1cc(OCCCC(=O)O)cc(C)c1Br` [Compound 14]: in assay [1] (setting [4]), the Kd is 80.7 ± 30.3 µM. Besides, the Kd in assay [1] (setting [3]) is < 150 µM and 148 µM. Also, in assay [1] (single experiment), the “Rmax (Table S1)” value is recorded as 78.9. In assay [2], the “Anti-virulence efficacy in the infection assay (in words)” value is on record as “as efficacious as or better than H1”, the viability at 25 µM amounted to 13%, the viability at 50 µM worked out at 23% and the viability at 100 µM amounted to 26%. In assay [2], the viability at 200 µM stood at 32%.
In the case of `COc1cc(OC)cc(OCCCC(=O)O)c1` [Compound 7], the Kd in assay [1] (setting [3]) was > 600 µM. Moreover, the “Binding to PcrV in SPR (in words)” value in assay [1] is “impaired binding”.
In the same order, the values of `O=C(O)CCCOc1ccc(I)cc1` [Compound 4] are > 600 µM and “no binding at the examined concentrations”.
In the case of `Cc1c(Br)ccc(OCCCC(=O)NC(C(=O)O)c2ccccc2)c1C` (stereo not shown) [Compound 21], in assay [1] (setting [4]), the Kd came out at 66.5 ± 18.5 µM. The Kd in assay [1] (setting [3]) was 67 µM and 88 µM. Also, the “Rmax (Table S1)” value in assay [1] (single experiment) is on record as 149.8. In addition, in assay [2], the viability at 25 µM came out at 12%, the viability at 50 µM is 26%, the viability at 100 µM stood at 36% and the viability at 200 µM was 30%.
With `O=C(O)CCCOc1ccc(C2CCCCC2)cc1` [Compound 15], the Kd in assay [1] (setting [3]) worked out at 153 µM. In assay [2], the viability at 25 µM was 12%, the viability at 50 µM was determined as 17%, the viability at 100 µM stood at 24% and the viability at 200 µM is 17%.
In the case of `O=C(O)CCCOc1ccc(Cc2ccccc2)cc1` [Compound 16], the Kd in assay [1] (setting [3]) was > 600 µM.
In turn, `Cc1c(Br)ccc(OCCCC(=O)N2CCCCC2C(=O)O)c1C` (stereo not shown) [Compound 22] gave a Kd in assay [1] (setting [4]) of 61.5 ± 14.9 µM. In assay [1] (setting [3]), the Kd was 62 µM and 77 µM. The “Rmax (Table S1)” value in assay [1] (single experiment) is 108.6. For the same compound, in assay [2], the viability at 25 µM came to 18%, the viability at 50 µM came out at 27%, the viability at 100 µM was determined as 29% and the viability at 200 µM is 28%.
As to `O=C(O)CCCOc1cccc(C(F)(F)F)c1` [Compound 9], the Kd in assay [1] (setting [3]) is > 600 µM. Besides, the “Binding to PcrV in SPR (in words)” value in assay [1] is “no binding to PcrV”.
Consider `O=C(O)CCCOc1cc(Cl)cc(Cl)c1` [Compound 2], for which, in assay [1] (setting [3]), the Kd was < 127 µM and 102 µM and 127 µM.
For the compound `O=C(O)CCCOc1ccc2ccc(=O)oc2c1` [Compound 11], in assay [1] (setting [3]), the dissociation constant (Kd) is > 600 µM. The “Binding to PcrV in SPR (in words)” value in assay [1] is given as “no binding to PcrV”.
In the same order, the values of `Cc1cc(C#N)cc(C)c1OCCCC(=O)O` [Compound 12] are > 600 µM and “reduced binding”.

One may read the Kd as the free concentration of one partner at which half of the binding sites on the other are occupied at equilibrium, for simple one-to-one binding. As a reminder, the viability is a per cent measure of how many cells are alive, often set against a control.
